For 21 compounds, EC50 results are on record in US12037333B2, “Pyridopyrazine and pyridotriazine inhibitors of influenza virus replication” (priority 2018, dated 2024).

SMILES strings stand for the structures.

In the experiment the test system is Influenza type A (strain A/PR/8/34, ATCC VR-95). The experiment in a line: Influenza antiviral assay: inhibition of virus-induced cytopathic effects (CPE) in MDCK cells, XTT dye reduction. The experiment is classed as cell-based. The note with it: Influenza A virus, H1N1 / PR/8, MDCK, 96 h, strain A/PR/8/34, MDCK cells, CPE inhibition at 4 days. (In general: Protection from cytopathic effect is a common read-out in antiviral testing.)
On to `CN1CN(C23c4ccccc4CC2Cc2ccccc23)n2ccc(=O)c(O)c2C1=O` (stereo not drawn) [Compound A1, 1-(9a, 10-dihydroindeno[1,2-a]inden-4b(9H)-yl)-5-hydroxy-3-methyl-2,3-dihydro-1H-pyrido[2,1-f][1,2,4]triazine-4,6-dione], for which the 50% effective concentration (EC50) is < 125 nM.
In the case of `O=C1c2c(O)c(=O)ccn2N(C23c4ccccc4CC2Cc2ccccc23)CN1CC1CC1` (stereo not drawn) [Compound A2, 3-Cyclopropylmethyl-1-(9a,10-dihydro-9H-indeno[1,2-a]inden-4b-yl)-5-hydroxy-2,3-dihydro-1H-pyrido[2,1-f][1,2,4]triazine-4,6-dione] it was 125 to 250 nM; in that of `CN1CN(C23c4ccc(F)cc4CC2Cc2cc(F)ccc23)n2ccc(=O)c(O)c2C1=O` (stereo not drawn) [Compound A3, 1-(2,7-Difluoro-9a,10-dihydro-9H-indeno[1,2-a]inden-4b-yl)-5-hydroxy-3-methyl-2,3-dihydro-1H-pyrido[2,1-f][1,2,4]triazine-4,6-dione], 125 to 250 nM; in that of `O=C1c2c(O)c(=O)ccn2N(C23c4ccccc4CC2Cc2ccccc23)CN1Cc1ccccc1` (stereo not drawn) [Compound A4, 3-Benzyl-1-(9a,10-dihydro-9H-indeno[1,2-a]inden-4b-yl)-5-hydroxy-2,3-dihydro-1H-pyrido[2,1-f][1,2,4]triazine-4,6-dione], > 500 nM.
In the case of `CN1CN(C23c4ccccc4CC2Cc2c3ccc(F)c2F)n2ccc(=O)c(O)c2C1=O` (stereo not drawn) [Compound A6, 1-(1,2-Difluoro-9a,10-dihydro-9H-indeno[1,2-a]inden-4b-yl)-5-hydroxy-3-methyl-2,3-dihydro-1H-pyrido[2,1-f][1,2,4]triazine-4,6-dione] it was < 125 nM.
For `O=C1c2c(O)c(=O)ccn2N(C23c4ccccc4CC2Cc2ccccc23)CN1CCOc1ccccc1` (stereo not drawn) [Compound A7, 1-(9a,10-Dihydro-9H-indeno[1,2-a]inden-4b-yl)-5-hydroxy-3-(2-phenoxy-ethyl)-2,3-dihydro-1H-pyrido[2,1-t][1,2,4]triazine-4,6-dione], the EC50 is > 500 nM.
For `CN1CN(C23c4cc(F)c(F)cc4CC2Cc2cc(F)c(F)cc23)n2ccc(=O)c(O)c2C1=O` (stereo not drawn) [Compound A8, 5-Hydroxy-3-methyl-1-(2,3,6,7-tetrafluoro-9a,10-dihydro-9H-indeno[1,2-a]inden-4b-yl)-2,3-dihydro-1H-pyrido[2,1-f][1,2,4]triazine-4,6-dione], the EC50 lay within 375 to 500 nM.
In the case of `O=C1c2c(O)c(=O)ccn2N(C23c4ccccc4CC2Cc2c3ccc(F)c2F)CN1CC1CC1` (stereo not drawn) [Compound A9, 3-Cyclopropylmethyl-1-(1,2-difluoro-9a,10-dihydro-9H-indeno[1,2-a]inden-4b-yl)-5-hydroxy-2,3-dihydro-1H-pyrido[2,1-f][1,2,4]triazine-4,6-dione] it was > 500 nM; in that of `CCN1CN(C23c4ccccc4CC2Cc2cc(F)c(F)cc23)n2ccc(=O)c(O)c2C1=O` (stereo not drawn) [Compound A10, 1-(2,3-Difluoro-9a,10-dihydro-9H-indeno[1,2-a]inden-4b-yl)-3-ethyl-5-hydroxy-2,3-dihydro-1H-pyrido[2,1-f][1,2,4]triazine-4,6-dione], 250 to 375 nM.
In the case of `O=C1c2c(O)c(=O)ccn2N(C23c4ccccc4CC2Cc2c3ccc(F)c2F)CN1Cc1ccccc1` (stereo not drawn) [Compound A11, 3-Benzyl-1-(1,2-difluoro-9a,10-dihydro-9H-indeno[1,2-a]inden-4b-yl)-5-hydroxy-2,3-dihydro-1H-pyrido[2,1-t][1,2,4]triazine-4,6-dione] it was > 500 nM.
In the case of `CN1CN(C23c4cccc(F)c4CC2Cc2c(F)cccc23)n2ccc(=O)c(O)c2C1=O` (stereo not drawn) [Compound A12, 1-(1,8-Difluoro-9a,10-dihydro-9H-indeno[1,2-a]inden-4b-yl)-5-hydroxy-3-methyl-2,3-dihydro-1H-pyrido[2,1-f][1,2,4]triazine-4,6-dione] it was < 125 nM.
Regarding `O=C1c2c(O)c(=O)ccn2N(C23c4ccccc4CC2Cc2cc(F)c(F)cc23)CN1CC1CC1` (stereo not drawn) [Compound A13, 3-Cyclopropylmethyl-1-(2,3-difluoro-9a,10-dihydro-9H-indeno[1,2-a]inden-4b-yl)-5-hydroxy-2,3-dihydro-1H-pyrido[2,1-f][1,2,4]triazine-4,6-dione], the EC50 is < 125 nM.
Under `CCN1CN(C23c4ccccc4CC2Cc2c3ccc(F)c2F)n2ccc(=O)c(O)c2C1=O` (stereo not drawn) [Compound A14, 1-(1,2-Difluoro-9a,10-dihydro-9H-indeno[1,2-a]inden-4b-yl)-3-ethyl-5-hydroxy-2,3-dihydro-1H-pyrido[2,1-f][1,2,4]triazine-4,6-dione] stands < 125 nM; under `O=C1c2c(O)c(=O)ccn2N(C23c4ccccc4CC2Cc2c3ccc(F)c2F)CN1CC1CCOCC1` (stereo not drawn) [Compound A15, 1-(1,2-Difluoro-9a,10-dihydro-9H-indeno[1,2-a]inden-4b-yl)-5-hydroxy-3-(tetrahydro-pyran-4-ylmethyl)-2,3-dihydro-1H-pyrido[2,1-f][1,2,4]triazine-4,6-dione], < 125 nM; under `O=C1c2c(O)c(=O)ccn2N(C23c4ccccc4CC2Cc2cc(F)c(F)cc23)CN1CC1CCOCC1` (stereo not drawn) [Compound A16, 1-(2,3-Difluoro-9a,10-dihydro-9H-indeno[1,2-a]inden-4b-yl)-5-hydroxy-3-(tetrahydro-pyran-4-ylmethyl)-2,3-dihydro-1H-pyrido[2,1-f][1,2,4]triazine-4,6-dione], < 125 nM.
Under `O=C1c2c(O)c(=O)ccn2N(C23c4ccccc4CC2Cc2c3ccc(F)c2F)CN1Cc1ccc(F)cc1` (stereo not drawn) [Compound A17, 1-(1,2-Difluoro-9a,10-dihydro-9H-indeno[1,2-a]inden-4b-yl)-3-(4-fluoro-benzyl)-5-hydroxy-2,3-dihydro-1H-pyrido[2,1-f][1,2,4]triazine-4,6-dione] stands 125 to 250 nM; under `CN1CN(C23c4ccccc4CC2Cc2cc(F)c(F)cc23)n2ccc(=O)c(O)c2C1=O` (stereo not drawn) [Compound A19, 1-(2,3-difluoro-9a,10-dihydroindeno[1,2-a]inden-4b(9H)-yl)-5-hydroxy-3-methyl-2,3-dihydro-1H-pyrido[2,1-f][1,2,4]triazine-4,6-dione], < 125 nM; under `CN1CN(C23c4cc(F)ccc4CC2Cc2ccc(F)cc23)n2ccc(=O)c(O)c2C1=O` (stereo not drawn) [Compound A20, 1-(3,6-difluoro-9a,10-dihydroindeno[1,2-a]inden-4b(9H)-yl)-5-hydroxy-3-methyl-2,3-dihydro-1H-pyrido[2,1-f][1,2,4]triazine-4,6-dione], < 125 nM.
In the case of `O=C1c2c(O)c(=O)ccn2N(C23c4ccccc4CC2Cc2cc(F)c(F)cc23)CN1Cc1ccccc1` (stereo not drawn) [Compound A21, 3-benzyl-1-(2,3-difluoro-9a,10-dihydroindeno[1,2-a]inden-4b(9H)-yl)-5-hydroxy-2,3-dihydro-1H-pyrido[2,1-f][1,2,4]triazine-4,6-dione] it was 250 to 375 nM; in that of `O=C1c2c(O)c(=O)ccn2N(C23c4ccccc4CC2Cc2cc(F)c(F)cc23)CN1CCc1ccccc1` (stereo not drawn) [Compound A22, 1-(2,3-difluoro-9a,10-dihydroindeno[1,2-a]inden-4b(9H)-yl)-5-hydroxy-3-phenethyl-2,3-dihydro-1H-pyrido[2,1-f][1,2,4]triazine-4,6-dione], 250 to 375 nM; in that of `O=C1c2c(O)c(=O)ccn2N(C23c4ccccc4CC2Cc2cc(F)c(F)cc23)CN1Cc1ccc(F)cc1` (stereo not drawn) [Compound A23, 1-(2,3-Difluoro-9a,10-dihydro-9H-indeno[1,2-a]inden-4b-yl)-3-(4-fluoro-benzyl)-5-hydroxy-2,3-dihydro-1H-pyrido[2,1-f][1,2,4]triazine-4,6-dione], > 500 nM.

As usually defined, the EC50 is the concentration needed to bring the measured effect to its halfway point. Read a high EC50 as a less potent agent.
